Consider four molecules from patent US6413969B1, “Gatifloxacin pentahydrate” (Bristol-Myers Squibb Company, priority 2000, dated 2002).

Each structure is given as a SMILES string.

Series [1] is described as follows: physical stability / interconversion of crystalline forms in water. It counts as physicochemical. The source says: (§1) The crystal structures and ideal water content of seven of these forms were established through single crystal x-ray analyses. Each form gives rise to unique and characteristic single crystal and powder x-ray diffraction. The kinetic and thermodynamic relationships among the three major hydrates were investigated leading to the understanding of their stability order in water as a function of temperature and their interconversion relationship. […] The implications of these findings were very significant in the discovery and development of highly homogeneous gatifloxacin pentahydrate in accordance with the present invention. Further, these findings made it evident that very strict process controls were necessary in the production of crystalline gatifloxacin and dosage forms containing it and that it was necessary to obtain crystalline gatifloxacin pentahydrate in high homogeneity vs. the other crystalline forms in order to realize the advantageous properties thereof. By high homogeneity is meant that crystalline gatifloxacin pentahydrate must contain no detectable levels of the other crystalline forms thereof as determined by powder x-ray diffraction technique.

The conditions of series [2]: parenterally and via oral administration; cited from earlier work.
Series [3] concerns broad spectrum of microorganisms including antibiotic-resistant strains of Streptococcus Pneumoniae. Conditions: cited from earlier work.
Series [4] has as its system infections. The note with it: cited from earlier work.
The nature of series [5]: aqueous solubility of the crystalline hydrates. The note with it: for aqueous solubility (rank among the three major hydrates): water, 25° C., sesquihydrate, pentahydrate, hexahydrate compared. The series is classed as physicochemical.
Excerpt: as §1

The conditions of series [6]: cited from earlier work.
Series [7] in a line: stability studies under stressed conditions of temperature and humidity. The series is classed as physicochemical. The text has this:
It has been found in accordance with the present invention that the advantageous stability and solubility properties of the pentahydrate of gatifloxacin can be applied to the formulation of pharmaceutical dosage forms. While the pentahydrate of gatifloxacin can be utilized to prepare tablets by wet granulation, it can also be formulated in accordance with the present invention into stable pharmaceutical solid dosage forms by conventional dry granulation. […] Such formulations will include conventional inert ingredients such as binders, excipients, disintegrants, and the like. Examples of such agents include various starch derivatives such as pregelatinized starch, hydroxypropyl cellulose microcrystalline cellulose, sodium starch glycolate, magnesium stearate, lactose, mannitol and the like.

`COc1c(N2CCNC(C)C2)c(F)cc2c(=O)c(C(=O)O)cn(C3CC3)c12` (stereo not drawn) [hemihydrate]: the “tendency to form higher hydrates” value in series [1] (in the presence of water) is “definite tendency to form higher hydrates”.
Turning to `COc1c(N2CCNC(C)C2)c(F)cc2c(=O)c(C(=O)O)cn(C3CC3)c12` (stereo not drawn) [Gatifloxacin, 1-cyclopropyl-6-fluoro-1,4-dihydro-8-methoxy-7-(3-methyl-1piperizinyl)-4-oxo-3-quinolinecarboxylic acid], in series [2], the efficacy entry is “excellent efficacy”. Also, the effectiveness against microorganisms result in series [3] was “effective”. Further, the overall tolerability result in series [4] (in vivo) was “excellent overall tolerability”. Also, the “safety and efficacy in treatment of infections” value in series [4] (individuals with impaired liver function) was “safe and efficacious”.
As for `COc1c(N2CCNC(C)C2)c(F)cc2c(=O)c(C(=O)O)cn(C3CC3)c12` (stereo not drawn) [sesquihydrate], the “aqueous solubility (rank among the three major hydrates)” value in series [5] is “highest”. Besides, the “disintegration and dissolution rates of tablets in comparison to the hemihydrate” value in series [6] (tablets made from the crystalline form) is “superior disintegration and dissolution rates”. In addition, in series [6] (varying conditions of humidity), the “stability in comparison to the hemihydrate” value is “enhanced stability”.
For `COc1c(N2CCNC(C)C2)c(F)cc2c(=O)c(C(=O)O)cn(C3CC3)c12` (stereo not drawn) [gatifloxacin pentahydrate, 1cyclopropyl-6-fluoro-1,4-dihydro-8-methoxy-7-(3-methyl-1-piperazinyl)-4-oxo-3-quinolinecarboxylic acid], the “physical stability of the crystalline form” value in series [1] (compared with the other crystalline forms, conversion over time) is on record as “most physically stable form”. Besides, the “solubility compared with the metastable sesquihydrate” value in series [5] (aqueous dosage forms) is reported as “less soluble”. Moreover, in series [5] (listed as pentahydrate), the “aqueous solubility (rank among the three major hydrates)” value is recorded as “lowest”. The “form change or other degradation” value in series [7] is “no evidence of form change or other degradation”.
